Reference: patent publication US10934355B2, “Methods and compositions for the prevention and treatment of surgical adhesions” (The Board of Trustees of the Leland Stanford Junior …, priority 2016, dated 2021)
“Also recorded” adds a separate entry of the source.

Legend:
Assay type in all cases: in vivo, mouse
[1] = system: adhesion formation in wild type C57BL/6J mice; assay: Adhesion induction (ischemic button) with HIF1A small molecule inhibitor treatment, adhesion scoring; settings: for adhesion formation: C57BL/6J mice, cryptotanshinone 200 mg/kg, FM19G11 2 mg/kg, echinomycin 10 or 20 ug/kg, PX12 25 mg/kg, immediately after injury, 4 hours after, then every 24 hours for 7 days, scored after 7 days; for adhesion score in a majority of the treated mice: scale 0-5, PX12 n=5, echinomycin n=15, 7 days after induction
Text: (§1) Adhesion induction surgeries were done on wild type B6 (C57BL/6J (The Jackson Laboratory) mice aged 6-10 weeks. Mice were anesthetized by inhaled isoflurane until determined unconscious confirmed by toe-pinch test. The abdomen was disinfected with betadine and phosphate buffered saline (PBS). A left mid-clavicular incision was made in the skin running down the length of the mouse. A similar left-mid clavicular incision was made in the peritoneum running down the length of the peritoneum. The peritoneum was gently folded to the right and held down by a hemostat. A single, ischemic button was placed on the right half of the peritoneal wall by clamping a small (−5 mm diameter) piece of peritoneum and ligating the base with a 4-0 silk suture (Ethicon, 683G). Light abrasion on the button (24 times) and on the adjacent liver, cecum, and small and large bowels (7 times) was optionally performed (depending on the desired adhesion severity) with a surgical brush. Light brushing with fewer repetitions was performed to avoid pinpoint bleeding. The peritoneum was closed using 4-0 silk sutures and the skin was stapled closed (EZ Clips, 9 mm, Braintree Scientific Inc). Mice were allowed to recover on a heating pad and injected with 0.05-0.1 mg/kg of buprenorphine. Mice were followed closely and monitored daily for signs of morbidity for 7 days until euthanasia. Adhesed tissues were dissected, scored, and fixed in 2% paraformaldehyde overnight at 4 degrees.
In functional studies we assign a single score for an adhesion, based on the criteria detailed in the text above, taking into consideration both surface area contact and molecular makeup. […] We have observed adhesion areas with high surface area contact (a score of 3 or 4) with little or no collagen or macrophage involvement (F4/80-). Conversely, we have also observed adhesion areas with low surface area contact (a score of 2) with high collagen and macrophage infiltration. In these cases we will score adhesions based on surface area contact or number of organs involved, as we predict this is a more significant indicator of clinical outcome.
Adhesion induction surgeries were performed on 4-8 week old wild type B6 (C57BL/6J (The Jackson Laboratory) as previously described. 200 mg/kg of cryptotanshinone (Sigma Aldrich), 2 mg/kg of FM19G11 (Sigma Aldrich), 10 ug/kg or 20 ug/kg of echinomycin (Sigma Aldrich), or 25 mg/kg of PX12 (Sigma Aldrich) immediately after injury, 4 hours after injury, and every 24 hours subsequently for 7 days.
Adhesions were induced in wild type C57BL/6J mice using the method described above, with different intensity and scope of abrasions to induce a range of adhesion severity. These mice were allowed to recover for seven days before their adhesions were scored.
In our scheme, an adhesion with a score of 0 has no adhesion between two areas, with limited mesothelial thickening on the button (FIG. 3A). The area stains positive for MSLN and fibronectin (FIG. 3A). Mice with an adhesion score of 0 had no signs of morbidity and survived the 7 day recovery period (n=25). An adhesion score of 1 indicated a “string” adhesion, connecting the two adhesed areas with a light fibrous bridge (FIG. 3B). The string and surrounding areas were immunopositive for MSLN and fibronectin (FIG. 3B). Most mice with an adhesion score of 1 had no signs of morbidity and survived the 7 day recovery period (n=11).
All adhesions with scores of 2 or above involve a single direct contact between two tissues. […]

HIF1A = assay: Immunofluorescence staining of mesothelium surrounding buttons after inhibitor treatment; settings: 7 days after induction and treatment; control adhesions positive for PDPN, MSLN and HIF1A
Procedure: Immunofluorescence studies were performed on frozen sections. Frozen sections were thawed at room temperature for ten minutes and washed in PBS twice. Slides were blocked in 5% serum for 30 minutes at room temperature. Sections were subsequently stained with primary antibodies against PDPN (1:100, mouse monoclonal, Abcam), MSLN (1:200, rabbit monoclonal, ABBIOTEC), fibronectin (1:100, rabbit monoclonal, Abcam), F4/80 (1:100, rat monoclonal, Abcam), CD31 (1:100, rabbit monoclonal, Abcam), pan-collagen (1:100, rabbit polyclonal, Abcam), WT1 (1:100, rabbit polyclonal, Abcam), CD44 (1:100, rabbit polyclonal, Abcam), HIF1A (1:100, mouse monoclonal), and S100A4 (1:100, rabbit polyclonal, Abcam), overnight at 4 degrees, and washed three times in PBS. Slides were stained were incubated with secondary antibodies conjugated to Alex Fluor 488, 594, or 647 for one to two hours at room temperature. Stains were washed once with PBST and three times with PBS before nuclear staining with Hoechst 33342 (Life Technologies), for two minutes and mounted with Fluoromount G (Southern Biotech).
To explore whether inhibiting the HIF1A pathway in vivo can prevent adhesion formation, we treated mice that had undergone adhesion induction with small molecular inhibitors against HIF1A or its immediate downstream cascade. […] Mice were euthanized after 7 days and their adhesions were imaged and scored.

[2] = system: adhesion formation in mice; assay: Adhesion induction with neutrophil/monocyte modulating treatments, adhesion score (Example 2); settings: for adhesion formation (adhesion score), pre-treatment: treated 24 hours prior to adhesion induction
Text: as §1
Peritoneal washes from similar time points confirmed that increased numbers of neutrophils and macrophages enter the peritoneum.

adhesions in mice = assay: Pre-treatment 3 days prior to adhesion induction surgery, adhesion severity scale 0-5 (Example 3); settings: pre-treated 3 days prior to surgery, evaluated 7 days post injury, versus PBS control
Text: as §1, with “Light abrasion on the button (24 times) and on the adjacent liver, cecum, and small and large bowels (7 times) was optionally performed (depending on the desired adhesion severity) with a surgical brush. Light brushing with fewer repetitions was performed to avoid pinpoint bleeding. The peritoneum was closed using 4-0 silk sutures and the skin was stapled closed (EZ Clips, 9 mm, Braintree Scientific Inc). Mice were allowed to recover on a heating pad and injected with 0.05-0.1 mg/kg of buprenorphine.” left out
Mice were pre-treated with either PLGA, thioglycollate, or PBS control 3 days prior to adhesion induction surgery as described in Example 1. Mice were evaluated 7 days post injury and evaluated on an adhesion severity scale from 0-5 for adhesions forming on the suture site (S) or the button (B). […]

[3] = system: HIF1A and mesothelial target genes in injured mesothelial cells; assay: RNA sequencing of sorted injured mesothelium after echinomycin treatment
Procedure: A modified adhesion induction surgery was done according to previously described procedures on wild type C57BL/6J (The Jackson Laboratory). Two ischemic buttons were placed on each side of the peritoneum and no abrasion of the button or abdominal organs was done. Mice were allowed to recover for 6, 12, or 24 hours and euthanized. Ischemic buttons were dissected by cutting the base and placed in dissociation media (DMEM (Life Technologies, 10565-042), 50 mg/ml collagenase IV (Worthington Biochemical), 20 uM CaCl2). Buttons were homogenized using a single edge blade (Razor Blade Company), and incubated in dissociation media for 30 minutes at 37 C. The subsequent cell suspension was filtered through a 100 um filter and spun and washed with 2% fetal bovine serum (FBS) in PBS. Cells were treated with 1 ml of ACK lysis buffer (Life Technologies) for 5 minutes at 4 C and spun and washed. Cells were blocked with 1% goat serum (Life Technologies) for 10 minutes and stained with anti-PDPN (BioLegend, 8.1.1, 1:100), anti-LYVE-1 (eBioscience, ALY-7, 1:100), anti-CD31 (eBioscience, 390, 1:100), and anti-CD45 (BioLegend, 30-F11, 1:100) for 30 minutes at 4 C. Cells were spun down, filtered, and resuspended in 200 µl of 2% FBS in PBS. Cells were run through a FACSAria (BD Bioscences) and PDPN+LYVE1-CD31-CD45- cells were sorted directly into 750 ul of Trizol LS (Life Technologies).
Total RNA from sorted mesothelial population was isolated using Trizol (ThermoFisher) as per manufacturer's recommendation and was facilitated by addition of linear polyacrylamide (Sigma) as a carrier during RNA precipitation. Purified total RNA was treated with 4 units of RQ1 RNase-free DNase (Promega) at 37° C. for 1 hour to remove trace amounts of genomic DNA. The DNase-treated total RNA was cleaned-up using RNeasy micro kit (QIAGEN). 10-50 ng of total RNA was used as input for cDNA preparation and amplification using Ovation RNA-Seq System V2 (NuGEN). Amplified cDNA was sheared using Covaris S2 (Covaris) using the following settings: total volume […], duty cycle 10%, intensity 5, cycle/burst 100, total time 2 min. The sheared cDNA was cleaned up using Agencourt Ampure XP (Beckman Coulter) to obtain cDNA fragments>=400 base pairs (bp). 500 ng of sheared and size-selected cDNA were used as input for library preparation using NEBNext Ultra DNA Library Prep Kit for Illumina (New England BioLabs) as per manufacturer's recommendations. Resulting libraries (fragment distribution: 300-700 bp; peak 500-550 bp) were sequenced using HiSeq 4000 (Illumina) to obtain 2×150 base pair paired-end reads. The reads obtained were trimmed for base call quality and the presence of adapter sequences using Skewer (ref). High quality reads thus obtained were aligned to mouse genome using OLego (ref) and the levels of expressed mRNAs were estimated using cuffdiff2 (ref) and represented as fragments per kilo-base per million mapped reads (FPKM).
To broadly determine the causative transcriptional changes in injured mesothelial cells downstream of HIF1A inhibition, we treated 10 wild type C57BL/6J mice with (20 ug/kg) of echinomycin prior to and immediately following adhesion induction via placement of four ischemic buttons. Using a similar method as outlined above, we isolated the damaged mesothelium from buttons, sorted and isolated their RNA for sequencing.

CCC(C)SSc1ncc[nH]1 (stereo not shown) [PX12]
adhesion formation [1]: significantly reduced; also recorded: dramatic decrease in adhesion formation and frequency; also recorded: significant decreases in adhesion formation; also recorded: reduce adhesion formation | adhesion score in a majority of the treated mice [1]: 0 | HIF1A immunofluorescence staining of mesothelium surrounding the buttons / adhesions (HIF1A): stained with only MSLN and PDPN

thioglycollate
adhesion formation (adhesion score), pre-treatment [2]: diminished adhesions | severity of adhesions at the button (B) (adhesions in mice): significantly reduced severity of adhesions | severity of adhesions at the suture site (S) (adhesions in mice): significantly reduced severity of adhesions

Catalase
adhesion formation (adhesion score), pre-treatment [2]: worsens adhesion formation

Cc1ccc(C(=O)COC(=O)c2cccc(NC(=O)c3ccc([N+](=O)[O-])cc3[N+](=O)[O-])c2)cc1 [FM19G11]
adhesion formation [1]: reduce adhesion formation

CS[C@H]1SC[C@H]2C(=O)N(C)[C@@H](C(C)C)C(=O)OC[C@@H](NC(=O)c3cnc4ccccc4n3)C(=O)N[C@@H](C)C(=O)N(C)[C@@H]1C(=O)N(C)[C@@H](C(C)C)C(=O)OC[C@@H](NC(=O)c1cnc3ccccc3n1)C(=O)N[C@@H](C)C(=O)N2C [echinomycin]
ITGAM, ITGB1, and ITGB2 gene expression after HIF1A inhibition ([3]; 20 ug/kg echinomycin): little difference in gene expression | PDPN, MSLN, and S100A4 expression after treatment ([3]; 20 ug/kg echinomycin): increased in expression | UPK1B and WT1 expression levels after treatment ([3]; 20 ug/kg echinomycin): dropped significantly | number of genes normally upregulated along the 24 hour time course that were decreased with HIF1A inhibition ([3]; 20 ug/kg echinomycin): over 200 genes | number of genes with little or decreased expression during the 24 hour time course that were upregulated by HIF1A inhibition ([3]; 20 ug/kg echinomycin): over 600 genes | expression of known HIF1A targets VEGFb and transferrin (TRF) ([3]; 20 ug/kg echinomycin prior to and immediately following adhesion induction): downregulated | adhesion formation [1]: significantly reduced; also recorded: dramatic decrease in adhesion formation and frequency; also recorded: significant decreases in adhesion formation; also recorded: significantly reduces the formation of adhesions | adhesion score in a majority of the treated mice [1]: 0 | HIF1A immunofluorescence staining of mesothelium surrounding the buttons / adhesions (HIF1A): stained with only MSLN and PDPN

MCP-1: monocyte chemoattractant protein-1, a known monocyte chemoattractant
side effects in animals ([2]; MCP-1 administration (e.g., intraperitoneally) in animal models): little or no side effects | adhesion formation (adhesion score), post-surgery treatment ([2]; treated for three days following adhesion induction surgery): diminish adhesion formation; also recorded: substantial reduction in adhesion grades
